Species on record: Rattus norvegicus
Experiment: DrugMatrix - Regimen: Daily Repeat
Assay type: toxicity, organism-based, Sprague-Dawley
Design: regimen Daily Repeat, gender Male, age 6-8 weeks
Details: in vivo, po, route oral GAVAGE, vehicle 100 % WATER; for ABSOLUTE BASOPHIL / ABSOLUTE EOSINOPHIL / ABSOLUTE LYMPHOCYTE / ABSOLUTE MONOCYTE / ABSOLUTE SEGMENTED NEUTROPHIL / BASOPHIL / EOSINOPHIL / ERYTHROCYTE COUNT / HEMATOCRIT / HEMOGLOBIN / LEUKOCYTE COUNT / LYMPHOCYTE / MEAN CORPUSCULAR HEMOGLOBIN / MEAN CORPUSCULAR HEMOGLOBIN CONCENTRATION / MEAN CORPUSCULAR VOLUME / MONOCYTE / NEUTROPHIL / NUCLEATED RED BLOOD CELLS / PLATELET COUNT: tissue Blood; for ALANINE AMINOTRANSFERASE / ALBUMIN / ALKALINE PHOSPHATASE / ASPARTATE AMINOTRANSFERASE / BLOOD UREA NITROGEN / CARBON DIOXIDE / CHLORIDE / CHOLESTEROL / CREATINE PHOSPHOKINASE / CREATININE / GLUCOSE / LACTATE DEHYDROGENASE / LIPASE / PHOSPHORUS / POTASSIUM / SODIUM / TOTAL BILIRUBIN / TOTAL PROTEIN / URIC ACID: tissue Plasma
[1] = 120 mg/kg, 72 h, dose level Low, time 3 day
[2] = 120 mg/kg, 120 h, dose level Low, time 5 day
[3] = 1200 mg/kg, 72 h, dose level High, time 3 day
[4] = 1200 mg/kg, 120 h, dose level High, time 5 day

## O=C(O)CNCP(=O)(O)O [GLYPHOSATE]
[1]
  ABSOLUTE BASOPHIL: 0 CELLS/uL
  ABSOLUTE EOSINOPHIL: 153 CELLS/uL
  ABSOLUTE LYMPHOCYTE: 11957 CELLS/uL
  ABSOLUTE MONOCYTE: 0 CELLS/uL
  ABSOLUTE SEGMENTED NEUTROPHIL: 890 CELLS/uL
  BASOPHIL: 0%
  EOSINOPHIL: 1.33%
  ERYTHROCYTE COUNT: 5.56 x10E6/uL
  HEMATOCRIT: 35.93%
  HEMOGLOBIN: 13.4 G/DL
  LEUKOCYTE COUNT: 13 x10E3/uL
  LYMPHOCYTE: 92%
  MEAN CORPUSCULAR HEMOGLOBIN: 24.1 pg
  MEAN CORPUSCULAR HEMOGLOBIN CONCENTRATION: 37.3 G/DL
  MEAN CORPUSCULAR VOLUME: 64.57 fL
  MONOCYTE: 0%
  NEUTROPHIL: 6.67%
  NUCLEATED RED BLOOD CELLS: 0 /100WBC
  PLATELET COUNT: 1067 x10E3/uL
  ALANINE AMINOTRANSFERASE: 56 u/L
  ALBUMIN: 4.13 G/DL
  ALKALINE PHOSPHATASE: 286.67 u/L
  ASPARTATE AMINOTRANSFERASE: 100.67 u/L
  BLOOD UREA NITROGEN: 15 mg/dL
  CARBON DIOXIDE: 24.67 mmol/L
  CHLORIDE: 103.33 MEQ/L
  CHOLESTEROL: 75 mg/dL
  CREATINE PHOSPHOKINASE: 1135.33 u/L
  CREATININE: 0.29 mg/dL
  GLUCOSE: 198.67 mg/dL
  LACTATE DEHYDROGENASE: 150.67 u/L
  LIPASE: 8 u/L
  PHOSPHORUS: 14.7 mg/dL
  POTASSIUM: 6.43 MEQ/L
  SODIUM: 145.93 MEQ/L
  TOTAL BILIRUBIN: 0.27 mg/dL
  TOTAL PROTEIN: 5.87 G/DL
  URIC ACID: 1.73 mg/dL
[2]
  ABSOLUTE BASOPHIL: 0 CELLS/uL
  ABSOLUTE EOSINOPHIL: 327.33 CELLS/uL
  ABSOLUTE LYMPHOCYTE: 13510 CELLS/uL
  ABSOLUTE MONOCYTE: 0 CELLS/uL
  ABSOLUTE SEGMENTED NEUTROPHIL: 1496 CELLS/uL
  BASOPHIL: 0%
  EOSINOPHIL: 2%
  ERYTHROCYTE COUNT: 5.7 x10E6/uL
  HEMATOCRIT: 34.73%
  HEMOGLOBIN: 13.27 G/DL
  LEUKOCYTE COUNT: 15.33 x10E3/uL
  LYMPHOCYTE: 88.33%
  MEAN CORPUSCULAR HEMOGLOBIN: 23.27 pg
  MEAN CORPUSCULAR HEMOGLOBIN CONCENTRATION: 38.23 G/DL
  MEAN CORPUSCULAR VOLUME: 60.93 fL
  MONOCYTE: 0%
  NEUTROPHIL: 9.67%
  NUCLEATED RED BLOOD CELLS: 0 /100WBC
  PLATELET COUNT: 1299.33 x10E3/uL
  ALANINE AMINOTRANSFERASE: 51.33 u/L
  ALBUMIN: 4.47 G/DL
  ALKALINE PHOSPHATASE: 337.33 u/L
  ASPARTATE AMINOTRANSFERASE: 87.33 u/L
  BLOOD UREA NITROGEN: 15.67 mg/dL
  CARBON DIOXIDE: 25 mmol/L
  CHLORIDE: 103.67 MEQ/L
  CHOLESTEROL: 64 mg/dL
  CREATINE PHOSPHOKINASE: 252 u/L
  CREATININE: 0.19 mg/dL
  GLUCOSE: 168.33 mg/dL
  LACTATE DEHYDROGENASE: 300.67 u/L
  LIPASE: 8.67 u/L
  PHOSPHORUS: 12.53 mg/dL
  POTASSIUM: 6.55 MEQ/L
  SODIUM: 145.77 MEQ/L
  TOTAL BILIRUBIN: 0.13 mg/dL
  TOTAL PROTEIN: 6.1 G/DL
  URIC ACID: 1.9 mg/dL
[3]
  ABSOLUTE BASOPHIL: 0 CELLS/uL
  ABSOLUTE EOSINOPHIL: 430 CELLS/uL
  ABSOLUTE LYMPHOCYTE: 12770 CELLS/uL
  ABSOLUTE MONOCYTE: 0 CELLS/uL
  ABSOLUTE SEGMENTED NEUTROPHIL: 3000 CELLS/uL
  BASOPHIL: 0%
  EOSINOPHIL: 2.67%
  ERYTHROCYTE COUNT: 5.53 x10E6/uL
  HEMATOCRIT: 35%
  HEMOGLOBIN: 13.4 G/DL
  LEUKOCYTE COUNT: 16.2 x10E3/uL
  LYMPHOCYTE: 79.33%
  MEAN CORPUSCULAR HEMOGLOBIN: 24.3 pg
  MEAN CORPUSCULAR HEMOGLOBIN CONCENTRATION: 38.3 G/DL
  MEAN CORPUSCULAR VOLUME: 63.37 fL
  MONOCYTE: 0%
  NEUTROPHIL: 18%
  NUCLEATED RED BLOOD CELLS: 0 /100WBC
  PLATELET COUNT: 1325.33 x10E3/uL
  ALANINE AMINOTRANSFERASE: 51.33 u/L
  ALBUMIN: 4.17 G/DL
  ALKALINE PHOSPHATASE: 418.33 u/L
  ASPARTATE AMINOTRANSFERASE: 78.33 u/L
  BLOOD UREA NITROGEN: 15.33 mg/dL
  CARBON DIOXIDE: 27.33 mmol/L
  CHLORIDE: 101 MEQ/L
  CHOLESTEROL: 60.33 mg/dL
  CREATINE PHOSPHOKINASE: 226.67 u/L
  CREATININE: 0.19 mg/dL
  GLUCOSE: 167 mg/dL
  LACTATE DEHYDROGENASE: 154.67 u/L
  LIPASE: 8.67 u/L
  PHOSPHORUS: 13.27 mg/dL
  POTASSIUM: 6.4 MEQ/L
  SODIUM: 145.67 MEQ/L
  TOTAL BILIRUBIN: 0.1 mg/dL
  TOTAL PROTEIN: 5.83 G/DL
  URIC ACID: 1.47 mg/dL
[4]
  ABSOLUTE BASOPHIL: 0 CELLS/uL
  ABSOLUTE EOSINOPHIL: 318.67 CELLS/uL
  ABSOLUTE LYMPHOCYTE: 13433.33 CELLS/uL
  ABSOLUTE MONOCYTE: 0 CELLS/uL
  ABSOLUTE SEGMENTED NEUTROPHIL: 2014.67 CELLS/uL
  BASOPHIL: 0%
  EOSINOPHIL: 2%
  ERYTHROCYTE COUNT: 5.83 x10E6/uL
  HEMATOCRIT: 36%
  HEMOGLOBIN: 13.47 G/DL
  LEUKOCYTE COUNT: 15.77 x10E3/uL
  LYMPHOCYTE: 84.67%
  MEAN CORPUSCULAR HEMOGLOBIN: 23.1 pg
  MEAN CORPUSCULAR HEMOGLOBIN CONCENTRATION: 37.47 G/DL
  MEAN CORPUSCULAR VOLUME: 61.7 fL
  MONOCYTE: 0%
  NEUTROPHIL: 13.33%
  NUCLEATED RED BLOOD CELLS: 0 /100WBC
  PLATELET COUNT: 1271.67 x10E3/uL
  ALANINE AMINOTRANSFERASE: 65.33 u/L
  ALBUMIN: 4.43 G/DL
  ALKALINE PHOSPHATASE: 391.33 u/L
  ASPARTATE AMINOTRANSFERASE: 82.33 u/L
  BLOOD UREA NITROGEN: 16.33 mg/dL
  CARBON DIOXIDE: 27.33 mmol/L
  CHLORIDE: 102.67 MEQ/L
  CHOLESTEROL: 68.67 mg/dL
  CREATINE PHOSPHOKINASE: 204.33 u/L
  CREATININE: 0.15 mg/dL
  GLUCOSE: 177 mg/dL
  LACTATE DEHYDROGENASE: 87 u/L
  LIPASE: 9 u/L
  PHOSPHORUS: 12.33 mg/dL
  POTASSIUM: 6.56 MEQ/L
  SODIUM: 147.4 MEQ/L
  TOTAL BILIRUBIN: 0.13 mg/dL
  TOTAL PROTEIN: 6.03 G/DL
  URIC ACID: 1.9 mg/dL

— ChEMBL document CHEMBL3885881, “DrugMatrix”
